In article PMC11850817 (Scientific Reports, 2025):

Legend:
[1] = tested on: MCF-7; experiment: MTT antiproliferative assay, MCF-7; format: cell-based, human; details: Homo sapiens, MCF7, 72 h, read-out: IC50 MCF-7
[2] = molecular target: ROS1 (Homo sapiens, UniProt P08922); experiment: Radiometric kinase assay; format: biochemical; details: read-out: Kinase inhibition (%) ROS1
[3] = molecular target: PDGFRA (PDGFRα) (Homo sapiens, UniProt P16234); experiment: Radiometric kinase assay; format: biochemical; details: read-out: Kinase inhibition (%) PDGFRA (PDGFRα)
[4] = molecular target: AKT2 (Homo sapiens, UniProt P31751); experiment: Radiometric kinase assay; format: biochemical; details: read-out: Kinase inhibition (%) AKT2
[5] = molecular target: ERBB2 (Her-2) (Homo sapiens, UniProt P04626); experiment: Radiometric kinase assay; format: biochemical; details: read-out: Kinase inhibition (%) ERBB2 (Her-2)
[6] = tested on: AsPC-1 cells; experiment: Apoptosis by Hoechst 33,258 staining; format: cell-based, human; details: AsPC-1, 10 and 30 µM, 48 h
[7] = molecular target: KDR (VEGFR2) (Homo sapiens, UniProt P35968); experiment: Radiometric kinase assay; format: biochemical; details: read-out: Kinase inhibition (%) KDR (VEGFR2)
[8] = molecular target: NTRK3 (TrkC) (Homo sapiens, UniProt Q16288); experiment: Radiometric kinase assay; format: biochemical; details: read-out: Kinase inhibition (%) NTRK3 (TrkC)
[9] = molecular target: MAP2K1 (Homo sapiens, UniProt Q02750); experiment: Radiometric kinase assay; format: biochemical; details: read-out: Kinase inhibition (%) MAP2K1
[10] = tested on: AsPC-1; experiment: MTT antiproliferative assay, AsPC-1; format: cell-based, human; details: Homo sapiens, ASPC1, 72 h, read-out: IC50 AsPC-1
[11] = molecular target: NTRK2 (TrkB) (Homo sapiens, UniProt Q16620); experiment: Radiometric kinase assay; format: biochemical; details: read-out: Kinase inhibition (%) NTRK2 (TrkB)
[12] = molecular target: KIT (c-Kit) (Homo sapiens, UniProt P10721); experiment: Radiometric kinase assay; format: biochemical; details: read-out: Kinase inhibition (%) KIT (c-Kit)
[13] = tested on: Mia-Paca-2; experiment: MTT antiproliferative assay, Mia-Paca-2; format: cell-based, human; details: Homo sapiens, MIA PaCa-2, 72 h, read-out: IC50 Mia-Paca-2
[14] = molecular target: ALK (Homo sapiens, UniProt Q9UM73); experiment: Radiometric kinase assay; format: biochemical; details: read-out: Kinase inhibition (%) ALK
[15] = molecular target: PDGFRB (PDGFRβ) (Homo sapiens, UniProt P09619); experiment: Radiometric kinase assay; format: biochemical; details: read-out: Kinase inhibition (%) PDGFRB (PDGFRβ)
[16] = molecular target: EGFR (Homo sapiens, UniProt P00533); experiment: Radiometric kinase assay; format: biochemical; details: read-out: Kinase inhibition (%) EGFR
[17] = molecular target: AURKA (Homo sapiens, UniProt O14965); experiment: Radiometric kinase assay; format: biochemical; details: read-out: Kinase inhibition (%) AURKA
[18] = molecular target: ABL1 (Homo sapiens, UniProt P00519); experiment: Radiometric kinase assay; format: biochemical; details: read-out: Kinase inhibition (%) ABL1
[19] = molecular target: T1, AXL (Homo sapiens, UniProt P30530); experiment: Radiometric kinase assay; format: biochemical; details: read-out: Kinase inhibition (%) AXL
T1 sequence (P30530 26-894): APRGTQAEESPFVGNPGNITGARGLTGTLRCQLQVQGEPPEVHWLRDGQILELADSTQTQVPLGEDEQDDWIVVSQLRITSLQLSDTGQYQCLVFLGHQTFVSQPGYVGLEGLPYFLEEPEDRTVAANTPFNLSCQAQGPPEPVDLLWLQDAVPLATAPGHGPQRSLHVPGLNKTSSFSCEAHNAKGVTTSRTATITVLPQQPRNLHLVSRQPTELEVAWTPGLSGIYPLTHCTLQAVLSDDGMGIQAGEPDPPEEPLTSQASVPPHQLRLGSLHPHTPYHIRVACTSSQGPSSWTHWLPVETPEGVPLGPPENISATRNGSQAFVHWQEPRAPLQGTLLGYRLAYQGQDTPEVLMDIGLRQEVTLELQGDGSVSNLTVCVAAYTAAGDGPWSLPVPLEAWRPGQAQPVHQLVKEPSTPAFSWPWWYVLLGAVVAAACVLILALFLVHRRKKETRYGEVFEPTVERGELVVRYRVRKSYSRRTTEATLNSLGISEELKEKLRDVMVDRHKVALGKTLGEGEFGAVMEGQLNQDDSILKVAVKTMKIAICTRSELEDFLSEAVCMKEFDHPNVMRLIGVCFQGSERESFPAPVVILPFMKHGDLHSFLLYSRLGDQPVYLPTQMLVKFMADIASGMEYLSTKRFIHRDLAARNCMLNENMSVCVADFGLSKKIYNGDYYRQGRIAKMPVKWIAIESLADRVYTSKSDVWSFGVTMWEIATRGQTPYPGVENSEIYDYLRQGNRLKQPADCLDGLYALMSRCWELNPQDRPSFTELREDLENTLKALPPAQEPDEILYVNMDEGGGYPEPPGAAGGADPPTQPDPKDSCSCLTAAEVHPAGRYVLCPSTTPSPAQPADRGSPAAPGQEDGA

[20] = tested on: EBC-1; experiment: MTT antiproliferative assay, EBC-1; format: cell-based, human; details: Homo sapiens, EBC-1, 72 h, read-out: IC50 EBC-1
[21] = tested on: NIH3T3; experiment: MTT assay, NIH3T3 non-cancer cell line; format: cell-based; details: Mus musculus, NIH3T3, 72 h, read-out: IC50 NIH3T3
[22] = molecular target: BRAF (Homo sapiens, UniProt P15056); experiment: Radiometric kinase assay; format: biochemical; details: read-out: Kinase inhibition (%) BRAF
[23] = molecular target: CDK6/cyclinD3 (Homo sapiens, UniProt Q00534); experiment: Radiometric kinase assay; format: biochemical; details: read-out: Kinase inhibition (%) CDK6/cyclinD3
[24] = molecular target: NTRK1 (TrkA) (Homo sapiens, UniProt P04629); experiment: Radiometric kinase assay; format: biochemical; details: read-out: Kinase inhibition (%) NTRK1 (TrkA)
[25] = molecular target: CHEK1 (Homo sapiens, UniProt O14757); experiment: Radiometric kinase assay; format: biochemical; details: read-out: Kinase inhibition (%) CHEK1
Sequence of CHEK1 (O14757 whole entry): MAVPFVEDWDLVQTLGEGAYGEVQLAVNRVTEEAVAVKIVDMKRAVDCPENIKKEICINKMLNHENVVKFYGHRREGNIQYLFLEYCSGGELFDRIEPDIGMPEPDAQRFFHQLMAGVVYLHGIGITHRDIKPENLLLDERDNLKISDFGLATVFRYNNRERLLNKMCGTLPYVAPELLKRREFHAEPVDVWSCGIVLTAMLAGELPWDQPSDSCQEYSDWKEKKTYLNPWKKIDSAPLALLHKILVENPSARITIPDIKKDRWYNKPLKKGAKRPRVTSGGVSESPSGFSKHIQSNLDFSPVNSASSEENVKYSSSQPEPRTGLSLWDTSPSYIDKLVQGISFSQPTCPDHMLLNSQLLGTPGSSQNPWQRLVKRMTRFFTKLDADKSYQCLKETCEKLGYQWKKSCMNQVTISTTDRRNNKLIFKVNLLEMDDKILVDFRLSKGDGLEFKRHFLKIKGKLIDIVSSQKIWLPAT

Sequence of KDR (VEGFR2) (P35968 20-1356): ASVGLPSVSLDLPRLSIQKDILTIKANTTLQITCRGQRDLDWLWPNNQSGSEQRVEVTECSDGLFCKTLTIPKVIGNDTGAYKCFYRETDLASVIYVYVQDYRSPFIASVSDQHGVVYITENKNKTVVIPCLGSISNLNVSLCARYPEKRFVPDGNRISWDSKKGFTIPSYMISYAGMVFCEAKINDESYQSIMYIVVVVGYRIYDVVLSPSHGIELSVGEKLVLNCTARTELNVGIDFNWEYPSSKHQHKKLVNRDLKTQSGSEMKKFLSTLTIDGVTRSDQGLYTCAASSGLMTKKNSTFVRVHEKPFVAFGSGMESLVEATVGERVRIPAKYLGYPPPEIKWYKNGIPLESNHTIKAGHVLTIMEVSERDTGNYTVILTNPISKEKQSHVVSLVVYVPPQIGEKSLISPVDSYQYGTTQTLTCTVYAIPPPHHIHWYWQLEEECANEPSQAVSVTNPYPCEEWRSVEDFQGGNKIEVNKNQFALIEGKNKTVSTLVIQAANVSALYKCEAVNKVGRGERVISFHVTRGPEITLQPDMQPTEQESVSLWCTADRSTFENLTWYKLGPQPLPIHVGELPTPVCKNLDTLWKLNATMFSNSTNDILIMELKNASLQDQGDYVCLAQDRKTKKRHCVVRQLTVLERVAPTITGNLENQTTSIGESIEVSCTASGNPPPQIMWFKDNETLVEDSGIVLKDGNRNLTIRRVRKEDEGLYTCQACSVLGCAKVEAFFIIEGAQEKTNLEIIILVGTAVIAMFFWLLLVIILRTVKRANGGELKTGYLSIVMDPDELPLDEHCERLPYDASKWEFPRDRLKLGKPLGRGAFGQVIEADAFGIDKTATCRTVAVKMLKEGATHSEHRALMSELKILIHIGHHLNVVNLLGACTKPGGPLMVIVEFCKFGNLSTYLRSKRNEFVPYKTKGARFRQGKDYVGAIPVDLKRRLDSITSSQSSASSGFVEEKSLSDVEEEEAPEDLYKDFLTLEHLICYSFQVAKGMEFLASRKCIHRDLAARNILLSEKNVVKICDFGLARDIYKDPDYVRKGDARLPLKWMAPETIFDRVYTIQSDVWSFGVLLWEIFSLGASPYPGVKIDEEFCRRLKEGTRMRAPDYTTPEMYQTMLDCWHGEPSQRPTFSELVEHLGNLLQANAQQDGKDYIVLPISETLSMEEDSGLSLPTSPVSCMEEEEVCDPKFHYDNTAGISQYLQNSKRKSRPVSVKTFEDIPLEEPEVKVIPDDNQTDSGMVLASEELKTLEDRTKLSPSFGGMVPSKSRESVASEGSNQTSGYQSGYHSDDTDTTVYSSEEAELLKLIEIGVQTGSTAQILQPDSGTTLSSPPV
Sequence of ABL1 (P00519 whole entry): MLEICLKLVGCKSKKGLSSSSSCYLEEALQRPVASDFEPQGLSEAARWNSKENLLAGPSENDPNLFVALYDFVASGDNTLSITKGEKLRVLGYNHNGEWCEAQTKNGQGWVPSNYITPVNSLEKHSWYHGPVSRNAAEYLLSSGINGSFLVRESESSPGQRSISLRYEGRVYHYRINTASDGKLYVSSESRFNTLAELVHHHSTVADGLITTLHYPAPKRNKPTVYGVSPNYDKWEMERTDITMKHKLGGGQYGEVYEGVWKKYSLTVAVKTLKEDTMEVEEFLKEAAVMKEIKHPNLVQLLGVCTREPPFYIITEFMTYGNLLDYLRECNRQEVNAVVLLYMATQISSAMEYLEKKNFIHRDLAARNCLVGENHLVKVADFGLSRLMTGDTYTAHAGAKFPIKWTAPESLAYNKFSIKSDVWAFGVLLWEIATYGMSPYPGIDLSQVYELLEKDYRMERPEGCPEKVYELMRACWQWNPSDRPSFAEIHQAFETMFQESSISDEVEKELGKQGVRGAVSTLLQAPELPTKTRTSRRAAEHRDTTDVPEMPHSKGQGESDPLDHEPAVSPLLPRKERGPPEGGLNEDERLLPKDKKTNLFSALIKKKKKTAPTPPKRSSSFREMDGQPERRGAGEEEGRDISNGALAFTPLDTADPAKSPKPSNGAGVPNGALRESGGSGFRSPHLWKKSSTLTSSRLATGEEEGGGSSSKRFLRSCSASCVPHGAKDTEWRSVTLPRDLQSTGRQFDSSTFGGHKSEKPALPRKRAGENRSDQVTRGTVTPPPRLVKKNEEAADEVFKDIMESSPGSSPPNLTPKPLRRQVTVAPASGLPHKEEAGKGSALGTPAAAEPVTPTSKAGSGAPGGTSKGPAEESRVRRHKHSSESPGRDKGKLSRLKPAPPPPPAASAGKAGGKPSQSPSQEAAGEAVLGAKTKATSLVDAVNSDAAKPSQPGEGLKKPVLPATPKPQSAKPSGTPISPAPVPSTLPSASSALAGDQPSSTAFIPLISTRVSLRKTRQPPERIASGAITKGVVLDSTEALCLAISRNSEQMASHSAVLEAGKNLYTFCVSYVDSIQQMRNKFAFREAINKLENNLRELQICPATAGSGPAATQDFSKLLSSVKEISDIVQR
Sequence of ALK (Q9UM73 19-1620): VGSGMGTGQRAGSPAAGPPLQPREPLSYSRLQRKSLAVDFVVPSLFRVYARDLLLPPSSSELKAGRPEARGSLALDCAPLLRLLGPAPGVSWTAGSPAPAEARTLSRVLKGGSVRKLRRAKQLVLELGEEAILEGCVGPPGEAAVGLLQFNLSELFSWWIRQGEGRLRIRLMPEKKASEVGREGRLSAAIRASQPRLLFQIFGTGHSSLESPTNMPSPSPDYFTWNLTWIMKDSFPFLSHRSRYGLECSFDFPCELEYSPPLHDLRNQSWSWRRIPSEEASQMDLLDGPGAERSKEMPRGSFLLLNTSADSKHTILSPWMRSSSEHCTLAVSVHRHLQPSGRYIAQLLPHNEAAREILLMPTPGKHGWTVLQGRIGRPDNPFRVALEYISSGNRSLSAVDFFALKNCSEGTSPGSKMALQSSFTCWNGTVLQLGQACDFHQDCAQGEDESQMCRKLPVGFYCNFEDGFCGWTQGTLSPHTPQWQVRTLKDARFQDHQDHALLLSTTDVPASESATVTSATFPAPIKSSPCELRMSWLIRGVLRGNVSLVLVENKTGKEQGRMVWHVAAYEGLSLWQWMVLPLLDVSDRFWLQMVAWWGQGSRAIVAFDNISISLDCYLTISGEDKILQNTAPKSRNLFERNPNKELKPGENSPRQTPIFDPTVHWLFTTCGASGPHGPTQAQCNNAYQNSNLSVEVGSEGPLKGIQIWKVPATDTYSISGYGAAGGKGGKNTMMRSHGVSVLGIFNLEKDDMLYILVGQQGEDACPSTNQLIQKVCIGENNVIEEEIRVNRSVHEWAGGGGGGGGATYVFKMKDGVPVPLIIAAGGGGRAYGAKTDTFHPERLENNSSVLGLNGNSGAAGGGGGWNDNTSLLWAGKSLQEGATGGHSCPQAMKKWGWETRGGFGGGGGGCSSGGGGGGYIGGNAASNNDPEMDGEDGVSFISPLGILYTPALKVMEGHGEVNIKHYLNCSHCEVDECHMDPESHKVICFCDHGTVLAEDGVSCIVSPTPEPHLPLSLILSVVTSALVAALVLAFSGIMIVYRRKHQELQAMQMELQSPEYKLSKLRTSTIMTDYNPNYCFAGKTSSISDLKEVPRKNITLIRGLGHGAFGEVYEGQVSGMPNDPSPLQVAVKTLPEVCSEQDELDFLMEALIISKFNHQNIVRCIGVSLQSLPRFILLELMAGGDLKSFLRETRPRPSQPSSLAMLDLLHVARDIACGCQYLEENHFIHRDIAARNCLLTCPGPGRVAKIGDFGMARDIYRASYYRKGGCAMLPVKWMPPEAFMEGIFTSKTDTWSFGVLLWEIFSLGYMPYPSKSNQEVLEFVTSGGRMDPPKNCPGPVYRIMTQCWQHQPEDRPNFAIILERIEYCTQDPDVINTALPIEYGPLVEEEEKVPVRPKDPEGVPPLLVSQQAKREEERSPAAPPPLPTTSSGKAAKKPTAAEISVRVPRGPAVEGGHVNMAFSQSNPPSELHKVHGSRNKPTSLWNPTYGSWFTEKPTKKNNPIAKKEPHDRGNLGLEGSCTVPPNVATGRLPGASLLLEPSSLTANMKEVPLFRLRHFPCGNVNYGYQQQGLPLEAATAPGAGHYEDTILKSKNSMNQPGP
Sequence of MAP2K1 (Q02750 whole entry): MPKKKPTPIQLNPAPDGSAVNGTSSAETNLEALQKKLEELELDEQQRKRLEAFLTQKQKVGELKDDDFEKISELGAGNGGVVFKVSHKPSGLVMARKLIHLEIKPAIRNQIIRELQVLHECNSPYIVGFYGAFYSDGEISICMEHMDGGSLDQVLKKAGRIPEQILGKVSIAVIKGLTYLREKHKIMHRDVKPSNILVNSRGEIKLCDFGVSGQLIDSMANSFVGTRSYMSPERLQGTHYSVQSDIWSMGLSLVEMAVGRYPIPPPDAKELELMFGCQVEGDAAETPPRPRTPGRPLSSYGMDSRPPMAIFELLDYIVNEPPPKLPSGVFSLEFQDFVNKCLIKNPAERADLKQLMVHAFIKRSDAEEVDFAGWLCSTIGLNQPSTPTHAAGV

O=C1C=C(Nc2ccc(OCc3cn(Cc4ccc(Cl)c(Cl)c4)nn3)cc2)C(=O)c2ccccc21 [Compound 4e, 2-((4-((1-(3,4-Dichlorobenzyl)−1H-1,2,3-triazol-4-yl)methoxy)phenyl)amino) naphthalene-1,4-dione]
IC50 [1]: 7.1 ± 4.3 µM
inhibition at 10 µM [2]: -2%
inhibition at 10 µM [3]: 43%
inhibition at 10 µM [4]: -7%
inhibition at 10 µM [5]: 2%
Apoptosis induction (nuclear morphology) [6]: characteristic features of apoptosis including densely packed chromatin within the nucleus as well as nuclear fragmentation
inhibition at 10 µM [7]: -9%
inhibition at 10 µM [8]: 12%
inhibition at 10 µM [9]: 4%
IC50 [10]: 1.1 ± 0.2 µM
inhibition at 10 µM [11]: 6%
inhibition at 10 µM [12]: -8%
IC50 [13]: 0.8 ± 0.1 µM
inhibition at 10 µM [14]: 15%
inhibition at 10 µM [15]: 14%
inhibition at 10 µM [16]: -3%
inhibition at 10 µM [17]: 5%
inhibition at 10 µM [18]: 13%
inhibition at 10 µM [19]: 5%
IC50 [20]: 0.3 ± 0.1 µM
IC50 [21]: 6.5 ± 1.2 µM
inhibition at 10 µM [22]: -7%
inhibition at 10 µM [23]: 3%
inhibition at 10 µM [24]: 2%
inhibition at 10 µM [25]: -12%
